Reference: patent US20220363727A1, “ANTIBACTERIAL PEPTIDE DERIVED FROM ERYTHROCULTER ILISHAEFORMIS AND USE THEREOF” (SOOCHOW UNIVERSITY, priority 2020, published 2022)
Converted amounts (≈) assume the structure as drawn. Read-outs that look alike come from different tables or passages of the source. Bridge positions count the residues as written; N and C are the ends. Ends that are not written are not given here.

Assays:
Format in all cases: cell-based
Aeromonas hydrophila = assay: microbe, parasite or virus in culture
Procedure: (§1) The antibacterial activity of LEAP-2 from Erythroculter ilishaeformis (having the amino acid sequence as shown in SEQ ID NO: 1) against fish pathogens was tested by a two-fold dilution method. […] Aeromonas sobria, Aeromonas hydrophila, Vibrio harveyi, Vibrio parahaemolyticus, Vibrio anguillarum, Vibrio vulnificus, Vibrio splendidus and Vibrio cholerae were cultured in a nutrient broth medium to the logarithmic phase, and then diluted with fresh nutrient broth medium to 10^5 CFU/mL. Then, 50 μL of diluted bacterial solution was added to each well of the 96-well plate containing the prepared two-fold dilution of LEAP-2 from Erythroculter ilishaeformis. After culturing at 37° C. for 18 hours, the minimal inhibitory concentration (MIC) was measured.

Vibrio splendidus = assay: microbe, parasite or virus in culture
Procedure: as §1

Vibrio vulnificus = assay: microbe, parasite or virus in culture
Procedure: as §1

Aeromonas sobria = assay: microbe, parasite or virus in culture
Procedure: as §1

Vibrio harveyi = assay: microbe, parasite or virus in culture
Procedure: as §1

Vibrio parahaemolyticus = assay: microbe, parasite or virus in culture
Procedure: as §1

Vibrio anguillarum = assay: microbe, parasite or virus in culture
Procedure: as §1

Vibrio cholerae = assay: MIC by two-fold dilution method
Procedure: as §1

V. harveyi = assay: Checkerboard test for synergy of LEAP-2 and ampicillin; conditions: Vibrio harveyi; for MIC used in combination: ampicillin and LEAP-2 used in combination
Procedure: (§2) 50 μL was added to each well, and uniformly mixed. […] 100 μL of bacterial solution was added to each well.

V. parahaemolyticus = assay: as above; conditions: Vibrio parahaemolyticus; for MIC used in combination: ampicillin and LEAP-2 used in combination
Procedure: as §2

[1] = test system: Aeromonas hydrophila (penicillin-resistant strain); assay: Kinetic analysis of antibacterial action (CFU counts over time); conditions: for Number of bacteria co-cultured with sample: LEAP-2 5×MIC 93.75 μg/mL
Procedure: Aeromonas hydrophila (penicillin-resistant strain) was cultured to the logarithmic phase and diluted with fresh nutrient broth medium to 10^5 CFU/mL. […] At each time point, 50 μL of bacterial solution was taken and diluted 1000 times with nutrient broth medium. Then 50 μL of the dilution was spread on a nutrient broth agarose plate. After culturing at 37° C. for 12 hours, the CFU was calculated.

In the case of `CC1(C)S[C@@H]2[C@H](NC(=O)[C@H](N)c3ccccc3)C(=O)N2[C@H]1C(=O)O` [Ampicillin], the MIC (Aeromonas hydrophila; Aeromonas hydrophila, 37° C., 18 hours, average of three experiments) was >200 µg/mL, the MIC (Aeromonas hydrophila; Aeromonas hydrophila, 37° C., 18 hours, average of three experiments, read-out: MIC) was > 200 µg/mL and the MIC (Vibrio splendidus; Vibrio splendidus, 37° C., 18 hours, average of three experiments) was >200 µg/mL. The MIC (Vibrio splendidus; Vibrio splendidus, 37° C., 18 hours, average of three experiments, read-out: MIC) was > 200 µg/mL, the MIC (Vibrio vulnificus; Vibrio vulnificus, 37° C., 18 hours, average of three experiments) was >200 µg/mL and the MIC (Vibrio vulnificus; Vibrio vulnificus, 37° C., 18 hours, average of three experiments, read-out: MIC) was > 200 µg/mL. The MIC (Aeromonas sobria; Aeromonas sobria, 37° C., 18 hours, average of three experiments) was >200 µg/mL, the MIC (Aeromonas sobria; Aeromonas sobria, 37° C., 18 hours, average of three experiments, read-out: MIC) was > 200 µg/mL and the MIC (Vibrio harveyi; Vibrio harveyi, 37° C., 18 hours, average of three experiments, read-out: MIC) was 37.5 µg/mL (≈ 107 µM). For the same molecule, the MIC (Vibrio parahaemolyticus; Vibrio parahaemolyticus, 37° C., 18 hours, average of three experiments, read-out: MIC) was 18.8 µg/mL (≈ 53.7 µM), the MIC (Vibrio anguillarum; Vibrio anguillarum, 37° C., 18 hours, average of three experiments) was >200 µg/mL and the MIC (Vibrio anguillarum; Vibrio anguillarum, 37° C., 18 hours, average of three experiments, read-out: MIC) was > 200 µg/mL. The MIC (Vibrio cholerae; 37° C., 18 hours, average of three experiments) was >200 µg/mL, the MIC (Vibrio cholerae; 18 h) was > 200 µg/mL and the MIC (V. harveyi; read-out: MIC used alone) was 37.5 µg/mL. The “MIC used in combination” value (V. harveyi) was 4.69 µg/mL, the MIC (V. parahaemolyticus; read-out: MIC used alone) was 18.8 µg/mL and the FIC (V. parahaemolyticus; MIC in combination/MIC alone) was 0.25. For the same molecule, the “MIC used in combination” value (V. parahaemolyticus) was 4.69 µg/mL, the “Number of bacteria co-cultured with sample” value (shortened to “Number”) ([1]; 0 min, ampicillin 1 mg/mL) was 67 ± 7.5 ×10^3, CFUs/mL and the “Number” value ([1]; 10 min, ampicillin 1 mg/mL) was 69 ± 8.1 ×10^3, CFUs/mL. The “Number” value ([1]; 20 min, ampicillin 1 mg/mL) was 70 ± 7.2 ×10^3, CFUs/mL, the “Number” value ([1]; 30 min, ampicillin 1 mg/mL) was 72 ± 6.9 ×10^3, CFUs/mL and the “Number” value ([1]; 45 min, ampicillin 1 mg/mL) was 85 ± 6.9 ×10^3, CFUs/mL. The “Number” value ([1]; 90 min, ampicillin 1 mg/mL) was 197 ± 12.6 ×10^3, CFUs/mL, the “Number” value ([1]; 120 min, ampicillin 1 mg/mL) was 378 ± 41.5 ×10^3, CFUs/mL and the “Number” value ([1]; 180 min, ampicillin 1 mg/mL) was 961 ± 87.3 ×10^3, CFUs/mL. For the same molecule, the “CFU of Aeromonas hydrophila after 180 minutes of incubation” value ([1]; ampicillin 1 mg/mL, 2862.0 μM, 180 minutes) was 9.6×10^5 CFUs/mL and the “CFU of Aeromonas hydrophila at start” value ([1]; ampicillin 1 mg/mL, 2862.0 μM, before incubation) was 6.7×10^4 CFUs/mL.

For “MTPLWRIMLLFKPHALCQNNYACSTGLCRYGHCSALQTILS (disulfide 17-28, 23-33) [LEAP-2]”, the MIC (Aeromonas hydrophila; 18 h) was 18.75 µg/mL, the “MIC (molar, in brackets)” value (Aeromonas hydrophila; Aeromonas hydrophila, converted from μg/mL) was “(4.0 μM)” and the MIC (Vibrio splendidus; 18 h) was 150 µg/mL. For the same molecule, the “MIC (molar, in brackets)” value (Vibrio splendidus; Vibrio splendidus, converted from μg/mL) was “(32.2 μM)”, the MIC (Vibrio vulnificus; 18 h) was 37.5 µg/mL and the “MIC (molar, in brackets)” value (Vibrio vulnificus; Vibrio vulnificus, converted from μg/mL) was “(8.1 μM)”. The MIC (Aeromonas sobria; 18 h) was 75 µg/mL, the “MIC (molar, in brackets)” value (Aeromonas sobria; Aeromonas sobria, converted from μg/mL) was “(16.1 μM)” and the MIC (Vibrio harveyi; 18 h) was 75 µg/mL. The “MIC (molar, in brackets)” value (Vibrio harveyi; Vibrio harveyi, converted from μg/mL) was “(16.1 μM)”, the MIC (Vibrio parahaemolyticus; 18 h) was 75 µg/mL and the “MIC (molar, in brackets)” value (Vibrio parahaemolyticus; Vibrio parahaemolyticus, converted from μg/mL) was “(16.1 μM)”. For the same molecule, the MIC (Vibrio anguillarum; 18 h) was 150 µg/mL, the “MIC (molar, in brackets)” value (Vibrio anguillarum; Vibrio anguillarum, converted from μg/mL) was “(32.2 μM)” and the “MIC (molar, in brackets)” value (Vibrio cholerae; converted from μg/mL) was “(8.1 μM)”. For the same molecule, the “MIC used in combination” value (V. harveyi) was 18.75 µg/mL, the “MIC used in combination” value (V. parahaemolyticus) was 18.75 µg/mL and the “Number” value ([1]; 0 min, ampicillin 1 mg/mL) was 65 ± 5.3 ×10^3, CFUs/mL. For the same molecule, the “time to kill all bacteria” value ([1]; 5×MIC, i.e., 20.2 μM) was ≤ 60 min, the “Number” value ([1]; 10 min, ampicillin 1 mg/mL) was 59 ± 7.4 ×10^3, CFUs/mL and the “Number” value ([1]; 20 min, ampicillin 1 mg/mL) was 40 ± 8.4 ×10^3, CFUs/mL. For the same molecule, the “Number” value ([1]; 30 min, ampicillin 1 mg/mL) was 28 ± 5.9 ×10^3, CFUs/mL, the “Number” value ([1]; 45 min, ampicillin 1 mg/mL) was 11 ± 3.5 ×10^3, CFUs/mL and the “Number” value ([1]; 60 min, ampicillin 1 mg/mL) was 0 ×10^3, CFUs/mL. For the same molecule, the “Number” value ([1]; 90 min, ampicillin 1 mg/mL) was 0 ×10^3, CFUs/mL, the “Number” value ([1]; 120 min, ampicillin 1 mg/mL) was 0 ×10^3, CFUs/mL and the “Number” value ([1]; 180 min, ampicillin 1 mg/mL) was 0 ×10^3, CFUs/mL.
